From patent US20230117034A1, “PYRAZOLOTRIAZINES” (Bayer Aktiengesellschaft, priority 2019, published 2023) come the findings set out here.

In one test the target is T1, CDK2/CycE (Homo sapiens, UniProt P24941).
T1 construct: purchased ProQinase GmbH (Freiburg, Germany); host or cells: insect cells (Sf9)
The test is described as follows: CDK2/CycE kinase assay (TR-FRET, 2 mM ATP). The test is classed as biochemical. The note with it: 2 mM ATP (high ATP); median; read-out: CDK2/CyclinE, 2 mM ATP (high ATP), IC50 (median). In short, it runs like this:
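Biotin-peptide phosphorylation (0.75 µM substrate, 2 mM ATP final, 25 min, 22 °C) by Sf9-expressed GST-CDK2/GST-CycE, after a 15-min compound pre-binding step. Inhibition scaled between enzyme-free (100%) and uninhibited (0%) wells.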
(In general: Time-resolved FRET reads energy transfer from a long-lived donor to a nearby acceptor.)

For a further test, the target named is T2, CDK9/CycT1 (Homo sapiens, UniProt P50750).
T2 construct: Recombinant full-length His-tagged human CDK9 and CycT1; purchased Life Technologies PV4131; host or cells: insect cells
The test is described as follows: CDK9/CycT1 high ATP kinase assay (TR-FRET, 2 mM ATP). The note with it: 2 mM ATP (high ATP); median; read-out: CDK9/CyclinT1, 2 mM ATP (high ATP), IC50 (median). In kind it is biochemical. In short, it runs like this: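 Full-length His-tagged human CDK9/CycT1 (insect cell, ~0.5 μg/mL) preincubated 15 min at 22 °C with compound in Tris pH 8.0, MgCl2, DTT buffer before reaction with biotinylated peptide substrate at high ATP (2 mM).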

T2 sequence (P50750 whole entry): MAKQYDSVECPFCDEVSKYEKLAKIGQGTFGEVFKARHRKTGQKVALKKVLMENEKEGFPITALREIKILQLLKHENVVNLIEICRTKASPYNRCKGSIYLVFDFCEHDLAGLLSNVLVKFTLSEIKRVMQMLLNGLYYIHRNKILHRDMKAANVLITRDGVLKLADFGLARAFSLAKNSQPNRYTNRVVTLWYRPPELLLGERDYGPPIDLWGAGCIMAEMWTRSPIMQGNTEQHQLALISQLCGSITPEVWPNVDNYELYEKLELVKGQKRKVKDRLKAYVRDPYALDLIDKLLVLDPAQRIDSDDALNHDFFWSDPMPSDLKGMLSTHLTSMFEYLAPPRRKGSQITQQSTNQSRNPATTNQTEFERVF
T2 sequence (O60563 whole entry partner): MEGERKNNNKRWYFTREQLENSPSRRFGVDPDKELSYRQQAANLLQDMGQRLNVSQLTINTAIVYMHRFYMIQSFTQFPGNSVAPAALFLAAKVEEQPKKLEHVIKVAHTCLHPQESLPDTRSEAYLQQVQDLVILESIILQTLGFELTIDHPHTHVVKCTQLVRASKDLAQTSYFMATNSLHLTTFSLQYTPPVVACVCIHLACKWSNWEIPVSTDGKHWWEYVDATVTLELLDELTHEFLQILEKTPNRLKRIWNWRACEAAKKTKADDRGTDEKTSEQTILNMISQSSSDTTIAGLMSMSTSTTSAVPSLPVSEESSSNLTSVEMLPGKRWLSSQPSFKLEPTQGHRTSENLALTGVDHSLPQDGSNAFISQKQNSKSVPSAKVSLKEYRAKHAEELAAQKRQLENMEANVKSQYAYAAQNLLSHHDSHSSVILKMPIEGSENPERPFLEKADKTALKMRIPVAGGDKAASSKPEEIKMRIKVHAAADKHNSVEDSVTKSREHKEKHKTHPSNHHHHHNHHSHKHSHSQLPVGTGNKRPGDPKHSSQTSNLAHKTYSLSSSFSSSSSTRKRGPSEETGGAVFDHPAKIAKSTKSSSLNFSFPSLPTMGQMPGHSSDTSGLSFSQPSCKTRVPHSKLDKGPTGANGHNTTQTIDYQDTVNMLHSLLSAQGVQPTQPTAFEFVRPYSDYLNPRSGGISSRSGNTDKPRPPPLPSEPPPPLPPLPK

On to `Clc1cccc(-c2cnc(CNc3nc(N4CCOCC4)nc4c(Br)cnn34)[nH]2)c1` [Example 81, 8-bromo-N-{[5-(3-chlorophenyl)-1H-imidazol-2-yl]methyl}-2-(morpholin-4-yl)pyrazolo[1,5-a][1,3,5]triazin-4-amine], for which the IC50 was 4.03 µM on CDK2/CycE and 5.39 µM on CDK9/CycT1.
In the same order, the values of `Brc1cnn2c(NCc3nnc(-c4ccccc4)[nH]3)nc(N3CC4(COC4)C3)nc12` [Example 65, 8-bromo-2-(2-oxa-6-azaspiro[3.3]heptan-6-yl)-N-[(5-phenyl-4H-1,2,4-triazol-3-yl)methyl]pyrazolo[1,5-a][1,3,5]triazin-4-amine] are greater than 20 µM and greater than 5.71 µM.
On to `FC(F)(F)Oc1ccccc1-c1cnc(CNc2nc(N3CCOCC3)nc3c(Br)cnn23)[nH]1` [Example 89, 8-bromo-2-(morpholin-4-yl)-N-({5-[2-(trifluoromethoxy)phenyl]-1H-imidazol-2-yl}methyl)pyrazolo[1,5-a][1,3,5]triazin-4-amine], for which the figures for the IC50 at CDK2/CycE and at CDK9/CycT1 were 9.87 µM and greater than 20 µM, respectively.
In the same order, the values of `Fc1ccccc1-c1nnc(CNc2nc(N3CCOCC3)nc3c(Br)cnn23)[nH]1` [Example 75, 8-bromo-N-{[5-(2-fluorophenyl)-4H-1,2,4-triazol-3-yl]methyl}-2-(morpholin-4-yl)pyrazolo[1,5-a][1,3,5]triazin-4-amine] are 2.5 µM and greater than 6.15 µM.
In the same order, the values of `Fc1ccc(-c2cnc(CNc3nc(N4CCOCC4)nc4c(Br)cnn34)[nH]2)cc1` [Example 66, 8-bromo-N-{[5-(4-fluorophenyl)-1H-imidazol-2-yl]methyl}-2-(morpholin-4-yl)pyrazolo[1,5-a][1,3,5]triazin-4-amine] are 2.3 µM and 4.48 µM.
The matching figures for `FC(F)(F)Oc1cccc(-c2cnc(CNc3nc(N4CCOCC4)nc4c(Br)cnn34)[nH]2)c1` [Example 82, 8-bromo-2-(morpholin-4-yl)-N-({5-[3-(trifluoromethoxy)phenyl]-1H-imidazol-2-yl}methyl)pyrazolo[1,5-a][1,3,5]triazin-4-amine]: 11.6 µM and 12.6 µM.
Consider `CN1CCN(c2nc(NCc3nc4cc(C(F)(F)F)ccc4[nH]3)n3ncc(C4CC4)c3n2)CC1` [Example 313, 8-cyclopropyl-2-(4-methylpiperazin-1-yl)-N-{[5-(trifluoromethyl)-1H-benzimidazol-2-yl]methyl}pyrazolo[1,5-a][1,3,5]triazin-4-amine], for which the IC50 on CDK2/CycE and at CDK9/CycT1 was greater than 20 µM each time.
Turning to `Clc1ccccc1-c1nnc(CNc2nc(N3CCOCC3)nc3c(Br)cnn23)[nH]1` [Example 69, 8-bromo-N-{[5-(2-chlorophenyl)-4H-1,2,4-triazol-3-yl]methyl}-2-(morpholin-4-yl)pyrazolo[1,5-a][1,3,5]triazin-4-amine], the results for the IC50 at CDK2/CycE and at CDK9/CycT1 were 12.1 µM and 8.35 µM, respectively.
`Cc1ccccc1-c1cnc(CNc2nc(N3CCOCC3)nc3c(Br)cnn23)[nH]1` [Example 85, 8-bromo-N-{[5-(2-methylphenyl)-1H-imidazol-2-yl]methyl}-2-(morpholin-4-yl)pyrazolo[1,5-a][1,3,5]triazin-4-amine]: the values for the IC50 on CDK2/CycE and on CDK9/CycT1 were 4.52 µM and greater than 10.8 µM, respectively.
On to `FC(F)(F)c1cccc(-c2cnc(CNc3nc(N4CCOCC4)nc4c(Br)cnn34)[nH]2)c1` [Example 83, 8-bromo-2-(morpholin-4-yl)-N-({5-[3-(trifluoromethyl)phenyl]-1H-imidazol-2-yl}methyl)pyrazolo[1,5-a][1,3,5]triazin-4-amine], for which the figures for the IC50 at CDK2/CycE and at CDK9/CycT1 were 7.66 µM and 6.79 µM, respectively.
In the same order, the values of `COC(=O)C1CCN(c2nc(NCc3nnc(-c4ccccc4)[nH]3)n3ncc(Br)c3n2)CC1` [Example 77, methyl 1-(8-bromo-4-{[(5-phenyl-4H-1,2,4-triazol-3-yl)methyl]amino}pyrazolo[1,5-a][1,3,5]triazin-2-yl)piperidine-4-carboxylate] are 11.1 µM and 12.9 µM.
The matching figures for `C[C@@H]1CN(c2nc(NCc3nc4ccccc4[nH]3)n3ncc(Br)c3n2)C[C@H](C)O1` [Example 73, N-[(1H-benzimidazol-2-yl)methyl]-8-bromo-2-[(2R,6S)-2,6-dimethylmorpholin-4-yl]pyrazolo[1,5-a][1,3,5]triazin-4-amine]: 6.09 µM and 9.38 µM.
The matching figures for `Clc1ccc(-c2cnc(CNc3nc(N4CCOCC4)nc4c(Br)cnn34)[nH]2)cc1` [Example 72, 8-bromo-N-{[5-(4-chlorophenyl)-1H-imidazol-2-yl]methyl}-2-(morpholin-4-yl)pyrazolo[1,5-a][1,3,5]triazin-4-amine]: 4.35 µM and 6.72 µM.
For `c1ccc(-c2nnc(CNc3nc(N4CCOCC4)nc4c(C5CC5)cnn34)[nH]2)cc1` [Example 93, 8-cyclopropyl-2-(morpholin-4-yl)-N-[(5-phenyl-4H-1,2,4-triazol-3-yl)methyl]pyrazolo[1,5-a][1,3,5]triazin-4-amine], the IC50 is 10.5 µM on CDK2/CycE and 8.59 µM at CDK9/CycT1.
The matching figures for `CC(C)c1cnn2c(NCc3nc4ccccc4[nH]3)nc(N3CCOCC3)nc12` [Example 1, N-[(1H-benzimidazol-2-yl)methyl]-2-(morpholin-4-yl)-8-(propan-2-yl)pyrazolo[1,5-a][1,3,5]triazin-4-amine]: 5.27 µM and greater than 20 µM.
In the same order, the values of `C[C@@H]1CN(c2nc(NCc3nnc(-c4ccccc4)[nH]3)n3ncc(Br)c3n2)C[C@H](C)O1` [Example 78, 8-bromo-2-[(2R,6S)-2,6-dimethylmorpholin-4-yl]-N-[(5-phenyl-4H-1,2,4-triazol-3-yl)methyl]pyrazolo[1,5-a][1,3,5]triazin-4-amine] are 4.28 µM and 0.768 µM.
The matching figures for `CC1(C)CN(c2nc(NCc3nnc(-c4ccccc4)[nH]3)n3ncc(Br)c3n2)CCO1` [Example 68, 8-bromo-2-(2,2-dimethylmorpholin-4-yl)-N-[(5-phenyl-4H-1,2,4-triazol-3-yl)methyl]pyrazolo[1,5-a][1,3,5]triazin-4-amine]: 10.6 µM and 5.34 µM.
Consider `Brc1cnn2c(NCc3ncc(-c4cccnc4)[nH]3)nc(N3CCOCC3)nc12` [Example 84, 8-bromo-2-(morpholin-4-yl)-N-{[5-(pyridin-3-yl)-1H-imidazol-2-yl]methyl}pyrazolo[1,5-a][1,3,5]triazin-4-amine], for which the IC50 on CDK2/CycE is 4.84 µM; at CDK9/CycT1, 3.44 µM.
In the same order, the values of `COc1cccc(-c2cnc(CNc3nc(N4CCOCC4)nc4c(Br)cnn34)[nH]2)c1` [Example 80, 8-bromo-N-{[5-(3-methoxyphenyl)-1H-imidazol-2-yl]methyl}-2-(morpholin-4-yl)pyrazolo[1,5-a][1,3,5]triazin-4-amine] are 4.04 µM and 5.43 µM.
`Brc1cnn2c(NCc3nnc(-c4ccccc4)[nH]3)nc(N3CCCC3)nc12` [Example 64, 8-bromo-N-[(5-phenyl-4H-1,2,4-triazol-3-yl)methyl]-2-(pyrrolidin-1-yl)pyrazolo[1,5-a][1,3,5]triazin-4-amine]: the IC50 at CDK2/CycE was 4.66 µM; at CDK9/CycT1, 3.56 µM.
